Laboratory results taken from patent US20260284082A1, “TARGETING THE PANX1-P2Y2R-TRPV4 PATHWAY TO TREAT LUNG ISCHEMIA-REPERFUSION INJURY” (UNIVERSITY OF VIRGINIA PATENT FOUNDATION, priority 2023, published 2026).

Legend:
human PMVECs = experiment: Baseline Ca2+ signaling in human PMVECs exposed to acute HR (Calbryte 520); format: cell-based; conditions: ARC 10 μM; 1 h hypoxia + 10 min reoxygenation
Experimental: Exposure of PMVECs to acute HR and Ca^2+ imaging in PMVECs: Primary human and murine pulmonary microvascular endothelial cells (PMVECs; Cell Biologics, Chicago, IL) were cultured on gelatin-coated flasks in endothelial cell medium (Cell Biologics). For acute HR exposure, PMVECs were washed with PBS, and serum-free/glucose-free endothelial cell medium was added. PMVECs were placed in a humidified, sealed hypoxia chamber (Billups-Rothenberg, San Diego, CA), whereupon the chamber was flushed with 95% nitrogen/5% CO2 for 20 minutes and placed in a 37° C. incubator to initiate hypoxia. After 1 hour of hypoxia, the chamber was opened to terminate hypoxia. […]
(§1) Ca^2+ imaging in human and mouse PMVECs was performed using an Andor Dragonfly 505 spinning-disk confocal imaging system with Borealis illumination and an Integrated Laser Engine solid-state laser source (Andor Technology, Belfast, UK), coupled with a Leica Dmi8 inverted microscope (Leica) and 63× objective (NA 1.47)^13 Images were acquired at 30 frames per second using Fusion 2.3 (Oxford Instruments, Belfast, UK) and an electron-multiplying CCD camera (iXon888). Calbryte 520 AM was excited at 488 nm, and emitted fluorescence was captured using a 525/50 bandpass emission filter. […]

TRPV4EC channels = experiment: TRPV4 sparklet activity in human PMVECs exposed to acute HR; format: cell-based; set-up: dose or concentration left out as unconfirmed; conditions: 1 h hypoxia + 10 min reoxygenation
Experimental: TRPV4 sparklets were assessed as increases in fluorescence relative to baseline fluorescence, obtained by averaging 10 quiescent images prior to stimulation. TRPV4 Ca^2+ sparklets were assessed based on previously established methods.^9,11 Average TRPV4 sparklet activity is defined as NPO, where N is the number of TRPV4 channels per site and PO is the open-state probability of the channel. NPO was calculated using the Single Channel Search module of Clampfit. quantal amplitudes derived from all-points histograms (0.3 AF/F0 for Fluo-4-loaded Pas),^12 and the following equation: NPO=(Tlevel1+2Tlevel2+3Tlevel3+4Tlevel4)/Ttotal, where T represents the dwell time at each quantal level and Ttotal is the total recording duration. […]
as §1

[1] = tested on: endothelium of human small PAs; experiment: Baseline endothelial Ca2+ signaling in freshly isolated small PAs from human lungs exposed to HR; format: cell-based; conditions: ARC; human small PAs (~50 μm)
Experimental: Ca^2+ imaging in Pas: Ca^2+ imaging in small Pas was performed as previously described.8 Fourth-order, small (~50 μm diameter) Pas (see FIG. 1B) were dissected from left lungs in cold HEPES-buffered physiological salt solution (HEPES-PSS; 10 mM HEPES, 134 mM NaCl, 6 mM KCl, 1 mM MgCl2 hexahydrate, 2 mM CaCl2) dihydrate, and 7 mM dextrose; pH adjusted to 7.4 using 1 M NaOH). Ca^2+ imaging studies were performed in en face preparations of small Pas incubated with Fluo-4 AM (10 μM) and pluronic acid (0.04%) at 37° C. for 10 minutes. For studies after sham or lung IR surgery, small Pas were immediately dissected out after the indicated reperfusion time and incubated en face with Fluo-4 AM. For acute hypoxia-reoxygenation (HR) exposure, small Pas were washed with PBS, after which serum free/glucose-free endothelial cell medium was added. Small Pas were placed in a humidified, sealed hypoxia chamber (Billups-Rothenberg, San Diego, CA), which was subsequently flushed with 95% nitrogen/5% CO2 for 20 minutes and placed in a 37° C. incubator to initiate hypoxia. After 1 hour of hypoxia, the chamber was opened to terminate hypoxia. […] Fluo-4 was excited using a 488-nm solid-state laser, and emitted fluorescence was captured using a 525/36-nm band-pass filter. […] Baseline Ca^2+ signaling activity was recorded in the absence of CPA. […]

[2] = tested on: murine pulmonary microvascular endothelial cells; conditions: murine PMVECs, acute hypoxia-reoxygenation; cited from earlier work
TRPV4 = conditions: cited from earlier work

Structure (SMILES) | HR-induced increase in baseline endothelial Ca signaling (human PMVECs) | HR-induced increase in TRPV4EC sparklets (TRPV4EC channels) | HR-induced increase in endothelial Ca2+ signaling [1] | HR-induced secretion of CXCL1/KC [2] | reversibility of TRPV4 inhibition (TRPV4)
Cc1ccc2c(c1)C=Cc1cc(C)ccc1C2c1cn(Cc2ccc(C(=O)Nc3nn[nH]n3)o2)c(=O)[nH]c1=S [ARC, AR-C 118925XX] | blocked | blocked | inhibited | – | –
O=C(NC1(c2ccccc2)CC1)c1c(CN2CCC(N3CCCCC3)CC2)c(-c2cccc(C(F)(F)F)c2)nc2cc(Br)ccc12 [GSK219, GSK2193874] | – | – | – | attenuated | reversible
